{"source": "patent US6602982B1", "about": "“Process for the preparation of regular glycopeptides” (Hokkaido Electric Power Company, Incorporated, priority 1998, dated 2003)", "procedure": "Aqueous solutions of the polymer of Example 5 having various concentrations were prepared, and the freezing point thereof was measured. The freezing point depression was measured with a light microscope with a temperature controller. Firstly, in order to remove any error in the measurement of freezing point due to supercooling, the whole system was previously frozen at −20° C., and then was carefully returned to 0° C. with attention not to dissolve completely the ice nucleus. Then, the system is gradually cooled with observing growth of ice crystal. The freezing point was deemed to be a point at which the growth of ice crystal was stopped and the whole system was frozen.", "data": [{"substance": "Olymer of L-Alanine-(β-D-galactopyranosyl)-(1→3)-(2-acetamido-2-deoxy-1-α-D-galactopyranosyl)-L-threonine-L-alanine [Example 5]", "values": [{"measurement": "growth of ice crystal", "setting": "aqueous solution, gradual cooling while observing ice crystal growth", "value": "inhibited the growth of ice crystal"}, {"measurement": "freezing point depression activity", "setting": "aqueous solutions of various concentrations, compared with literature data for natural origin AFGP, FIG. 1", "value": "almost the same freezing point depression activity as that of the natural origin AFGP"}]}]}
